Key:
Assay in all cases: relative viability (nuclei count vs DMSO), 5 days (fraction); higher = more cells survive
Kobe2602 + Trametinib = compound: C1=CC(=CC=C1NC(=S)NNC2=C(C=C(C=C2[N+](=O)[O-])C(F)(F)F)[N+](=O)[O-])F [Kobe2602] + CC(=O)Nc1cccc(-n2c(=O)n(C3CC3)c(=O)c3c(Nc4ccc(I)cc4F)n(C)c(=O)c(C)c32)c1 [Trametinib] (partner 0.02 µM)
Procedure, shortened: (§1)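 Relative viability was taken as the ratio of nuclei in treated wells to nuclei in vehicle wells. Lung cancer cell lines in 1536-well plates received compounds by pin tool one day after seeding, either one drug alone or a fixed anchor-drug dose plus five library-drug doses (not always all listed) in √10 steps. Nuclei were counted on 4× images after 5 days of treatment, and values are medians of duplicate plates.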

Zosuquidar + Navitoclax = compound: O[C@@H](COc1cccc2ncccc12)CN1CCN([C@@H]2c3ccccc3[C@@H]3[C@H](c4ccccc42)C3(F)F)CC1 [Zosuquidar] + CC1(C)CCC(c2ccc(Cl)cc2)=C(CN2CCN(c3ccc(C(=O)NS(=O)(=O)c4ccc(N[C@H](CCN5CCOCC5)CSc5ccccc5)c(S(=O)(=O)C(F)(F)F)c4)cc3)CC2)C1 [Navitoclax] (partner 0.5 µM)
Procedure, shortened: as §1

Zosuquidar + Phenformin = compound: O[C@@H](COc1cccc2ncccc12)CN1CCN([C@@H]2c3ccccc3[C@@H]3[C@H](c4ccccc42)C3(F)F)CC1 [Zosuquidar] + N=C(N)NC(=N)NCCc1ccccc1 [Phenformin] (partner 250 µM)
Procedure, shortened: as §1

Zosuquidar + Olaparib = compound: O[C@@H](COc1cccc2ncccc12)CN1CCN([C@@H]2c3ccccc3[C@@H]3[C@H](c4ccccc42)C3(F)F)CC1 [Zosuquidar] + O=C(c1cc(Cc2n[nH]c(=O)c3ccccc23)ccc1F)N1CCN(C(=O)C2CC2)CC1 [Olaparib] (partner 8 µM)
Procedure, shortened: as §1

Cell Line	relative viability (Kobe2602 + Trametinib; first compound 0.2 µM)	relative viability (Kobe2602 + Trametinib; first compound 0.6325 µM)	relative viability (Kobe2602 + Trametinib; first compound 2 µM)	relative viability (Kobe2602 + Trametinib; first compound 6.325 µM)	relative viability (Kobe2602 + Trametinib; first compound 20 µM)	relative viability (Zosuquidar + Navitoclax; first compound 0.01 µM)	relative viability (Zosuquidar + Navitoclax; first compound 0.03162 µM)	relative viability (Zosuquidar + Navitoclax; first compound 0.1 µM)	relative viability (Zosuquidar + Navitoclax; first compound 0.3162 µM)	relative viability (Zosuquidar + Navitoclax; first compound 1 µM)	relative viability (Zosuquidar + Phenformin; first compound 0.01 µM)	relative viability (Zosuquidar + Phenformin; first compound 0.03162 µM)	relative viability (Zosuquidar + Phenformin; first compound 0.1 µM)	relative viability (Zosuquidar + Phenformin; first compound 0.3162 µM)	relative viability (Zosuquidar + Phenformin; first compound 1 µM)	relative viability (Zosuquidar + Olaparib; first compound 0.01 µM)	relative viability (Zosuquidar + Olaparib; first compound 0.03162 µM)	relative viability (Zosuquidar + Olaparib; first compound 0.1 µM)	relative viability (Zosuquidar + Olaparib; first compound 0.3162 µM)	relative viability (Zosuquidar + Olaparib; first compound 1 µM)
COR-L23	0.569	0.587	0.575	0.549	0.679	0.999	1.14	1.11	1.02	1.02	0.422	0.413	0.416	0.514	0.453	0.363	0.38	0.333	0.355	0.37
COR-L 105	0.378	0.49	0.417	0.395	0.402	0.944	0.638	0.725	0.968	0.631	0.547	0.404	0.409	0.478	0.437	0.641	0.711	0.662	0.761	0.582
ChaGo-K-1	0.883	0.884	0.912	0.769	0.855	1.14	0.971	1.28	1.09	0.964	0.573	0.419	0.554	0.506	0.51	0.388	0.468	0.434	0.474	0.413
EKVX	0.38	0.366	0.288	0.298	0.319	0.93	0.938	0.842	1.03	0.899	0.231	0.252	0.189	0.243	0.227	0.854	0.833		0.913	0.847
EMC-BAC-2	0.822	0.874	0.898	0.91	0.807	1.19	0.795	1.05	1.18	1.12	0.523	0.541	0.517	0.602	0.537	0.467	0.487	0.529	0.535	0.482
EPLC-272H	0.263	0.288	0.304	0.278	0.299	1.08	1.28	1.1	1.07	0.984	0.344	0.288	0.287	0.241	0.301	0.755	0.912	0.909	0.96	0.745
H3255	0.621	0.629	0.549	0.632	0.588	0.513	0.492	0.537	0.608	0.436	0.34	0.373	0.326	0.38	0.36	0.549	0.559	0.558	0.553	0.541
HARA	0.846	0.636	0.627	0.771	0.752	1.1	1.15	1.1	1.1	1.14	0.408		0.489	0.41	0.451	1.13	0.804	0.905	0.936	0.93

Reference: the supplement of paper PMC10307832
